Results: US6242199A, “Assays for growth hormone secretagogue receptors” (Merck & Co., Inc., priority 1998, dated 2001)

Test system: human Type I GHSR
Experiment: Aequorin bioluminescence assay in Xenopus oocytes, human Type I GHSR
Assay type: cell-based
Details: human Type I cRNA in oocytes; tested from 1 μM down
Description: Xenopus laevis oocytes were isolated and injected using standard methods previously described by Arena, et. al. 1991, Mol. Pharmacol. 40, 368-374, which is hereby incorporated by reference. Adult female Xenopus Laevis frogs (purchased from Xenopus One, Ann Arbor, Mich.) were anesthetized with 0.17% tricaine methanesulfonate and the ovaries were surgically removed and placed in a 60 mm culture dish (Falcon) containing OR-2 medium without calcium (82.5 mM NaCl, 2 mM KCl, 2.5 mM sodium pyruvate, 1 mM MgCl2, 100 μ/ml penicillin, 1 mg/ml streptomycin, 5 mM HEPES, pH=7.5; ND-96 from Specialty Media, NJ). Ovarian lobes were broken open, rinsed several times, and oocytes were released from their sacs by collagenase A digestion (Boehringer-Mannheim; 0.2% for 2-3 hours at 18° C.) in calcium-free OR-2. […]
The ABA requires injection of library pool cRNA (25 ng/egg for pool sizes of 500 to 10,000) with aequorin cRNA (2 ng/egg) supplemented with the G-protein alpha subunit Gα11 (2 ng/egg). […] Polymerase chain reaction (PCR) was utilized to generate a DNA fragment corresponding to the open reading frame (ORF) of the aequorin cDNA with an optimized Kosak translational initiation sequence (Inouye, S. et. al., 1985, Proc. Natl. Acad. Sci. USA 82:3154-3158). […]

## CC(C)(N)C(=O)N[C@H](COCc1ccccc1)C(=O)N1CCC2(CC1)CN(S(C)(=O)=O)c1ccccc12 [Compound A, (N-[1(R)-[1,2-dihydro-1-methanesulfonlylspiro[3H-indole-3,4'-piperidin]-1'-yl)carbonyl]-2-(phenylmethyloxy)-ethyl]-2-amino-2-methyl-propanamide]
  lowest Compound A concentration giving a response: 0.1 nM
